Source: PMC9505538, “P-Glycoprotein (MDR1/ABCB1) Restricts Brain Accumulation of the Novel EGFR Inhibitor EAI045 and Oral Elacridar Coadministration Enhances Its Brain Accumulation and Oral Exposure” (Pharmaceuticals, 2022)

Details: mouse, in vivo
Protocol: A 4-h pilot experiment was performed in female wild-type (WT) and double-knockout Abcb1a/1b;Abcg2^-/- mice, with oral administration of 20 mg/kg EAI045. As shown in Supplemental Figure S2A,B, EAI045 was very rapidly absorbed in all strains, with an apparent tmax around 5 min.
We further measured the brain, liver, kidney, spleen, lung, and small intestine with content (SIWC) concentrations of EAI045 4 h after oral administration. Whereas at t = 4 h the plasma concentrations between the two strains were similar, the brain concentrations and brain-to-plasma ratios in Abcb1a/1b;Abcg2^-/- mice were dramatically higher than those in WT mice (25-fold and 12-fold, respectively, Supplemental Figure S3A,B). […] In contrast, the small intestine with content (SIWC) percentage of dose (SIWC%) and SIWC%-to-plasma ratio was reduced in Abcb1a/1b;Abcg2^-/- mice (Supplemental Figure S3K,L).
Mice (Mus musculus) were bred in the Netherlands Cancer Institute and housed and handled according to institutional guidelines complying with Dutch and EU legislation. Animals used were WT, Abcb1a/1b^-/- [39], Abcg2^-/- [40], Abcb1a/1b;Abcg2^-/- [41], Cyp3a^-/- [42], and Oatp1a/1b^-/- [43] mice of a >99% FVB/N strain background. Homozygous CYP3A4 humanized transgenic mice (Cyp3aXAV) were generated by cross-breeding of transgenic mice with stable human CYP3A4 expression in the liver or intestine, respectively, in a Cyp3a^-/- background. Proper functionality of the knockout and transgenic strains was monitored by regular testing with a variety of drug substrates. All the mice used were between 10 and 15 weeks of age. Animals were kept in a temperature-controlled environment with a 12 h light/12 h dark cycle and received a standard diet (Transbreed, SDS Diets, Technilab-BMI, The Netherlands) and acidified water ad libitum. Depending on the type of experiment, 5 or 6 mice were tested in each experimental group. All experimental animal protocols, including power calculations, were ethically assessed and designed under the nationally approved DEC/CCD project AVD301002016595 (approval date, 10 August 2016) and evaluated and approved by the institutional animal care and use committee (IACUC) of the Netherlands Cancer Institute.
EAI045 was dissolved in dimethyl sulfoxide (DMSO) at a concentration of 4 mg/mL, and then diluted with a mixture of polysorbate 80/ethanol (1:1, v/v), and further diluted with 5% (w/v) glucose in water to yield a concentration of 2 mg/mL. Final concentrations for DMSO, polysorbate 80, ethanol, and glucose in the dosing solution were 5%, 2.5%, 2.5%, and 4.5% (v/v/v/w), respectively. […]

percentage of dose left in intestinal lumen (SIWC%): 1.7%
apparent tmax (po, 20 mg/kg): around 5 min
plasma exposure over 4 h (AUC0–4h) (po, 20 mg/kg): not meaningfully altered
brain-to-plasma ratio (po, 20 mg/kg, 4 h): 0.15
SMILES: O=C(Nc1nccs1)C(c1cc(F)ccc1O)N1Cc2ccccc2C1=O (stereo not shown) [EAI045]
